Data on 24 compounds can be found in patent US10577363B2, “Substituted piperidine compounds” (EPIZYME, INC., priority 2014, dated 2020).

Experiment [1] addresses T1, SMYD3 (Homo sapiens (Human), UniProt Q9H7B4). Nature of the experiment: SMYD3 biochemical assay (SPA, 3H-SAM methylation of MEKK2 protein substrate). The note with it: read-out: SMYD3 Biochem IC50*. The method in brief:
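Tritium incorporation into GST-MEKK2 is counted by scintillation proximity after citric acid bead capture. Native human SMYD3 is preincubated with test compound for 30 min at room temperature at pH 8.0 (Tris-Cl, TCEP, BSG, Tween 20) before 3H-SAM and substrate are added; cold SAM at 100 uM final stops turnover.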

For experiment [2], the target named is T1, SMYD3. Nature of the experiment: SMYD3 cell assay (Trimethyl-MEKK2 In-Cell Western in 293T/17 cells). The class given is cell-based. As to conditions: read-out: SMYD3 Cell IC50*. The method in brief: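 In-Cell Western ratio of trimethyl-Lys260 MEKK2 to anti-flag signal; percent inhibition from DMSO and maximum-inhibition controls, IC50 by non-linear regression, triplicates.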

The mark [3] stands for this setting: IC50 values are an average of n = 1 to n = 50.

T1 sequence (Q9H7B4 whole entry): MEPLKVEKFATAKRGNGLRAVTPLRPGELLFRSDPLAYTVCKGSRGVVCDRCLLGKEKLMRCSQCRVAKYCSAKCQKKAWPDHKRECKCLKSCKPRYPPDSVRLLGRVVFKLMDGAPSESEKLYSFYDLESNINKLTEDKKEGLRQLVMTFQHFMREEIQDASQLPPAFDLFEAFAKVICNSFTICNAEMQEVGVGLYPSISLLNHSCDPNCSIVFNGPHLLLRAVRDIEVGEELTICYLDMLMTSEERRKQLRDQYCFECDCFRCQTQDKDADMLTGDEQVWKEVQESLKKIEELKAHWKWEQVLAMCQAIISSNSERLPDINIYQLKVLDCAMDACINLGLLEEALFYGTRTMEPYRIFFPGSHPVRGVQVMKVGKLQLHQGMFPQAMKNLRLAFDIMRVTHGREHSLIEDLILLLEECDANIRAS

With `C[C@H]1CN(S(=O)(=O)[C@H]2CC[C@@H](N(C)C)CC2)CC[C@H]1NC(=O)c1cc(C2CC2)on1` [compound 957, 5-cyclopropyl-N-((3S,4R)-1-(((1s,4R)-4-(dimethylamino)cyclohexyl)sulfonyl)-3-methylpiperidin-4-yl)isoxazole-3-carboxamide], the half-inhibitory concentration (IC50) at SMYD3 [1] came to 69 nM; at SMYD3 [2], 512 nM.
For `O=C(N[C@H]1C[C@H]2CC[C@@H](C1)N2S(=O)(=O)N1CCC(Nc2ncccn2)CC1)c1cc(C2CC2)on1` [compound 958, 5-cyclopropyl-N-((1R,3r,5S)-8-((4-(pyrimidin-2-ylamino)piperidin-1-yl)sulfonyl)-8-azabicyclo[3.2.1]octan-3-yl)isoxazole-3-carboxamide], the IC50 was determined as 76.7 nM on SMYD3 [1] and 486 nM on SMYD3 [2].
With `NCCc1ccc(S(=O)(=O)N2[C@@H]3CC[C@H]2C[C@@H](NC(=O)c2cc(C4CC4)on2)C3)cc1` [compound 959, N-((1R,3r,5S)-8-((4-(2-aminoethyl)phenyl)sulfonyl)-8-azabicyclo[3.2.1]octan-3-yl)-5-cyclopropylisoxazole-3-carboxamide], the IC50 at SMYD3 [1] was 79.7 nM; at SMYD3 [2] it was not below 10000 nM.
On the same counts, the results for `C[C@H]1C[C@@H](NC(=O)c2cc(C3CC3)on2)CCN1S(=O)(=O)N1CCNC[C@H]1c1ccccc1` [compound 960, 5-cyclopropyl-N-((2S,4S)-2-methyl-1-(((R)-2-phenylpiperazin-1-yl)sulfonyl)piperidin-4-yl)isoxazole-3-carboxamide] are 80.6 nM and 1350 nM.
On the same counts, the results for `CN(CCC(F)(F)F)C1CCN(S(=O)(=O)N2[C@@H]3CC[C@H]2C[C@@H](NC(=O)c2cc(C4CC4)on2)C3)CC1` [compound 961, 5-cyclopropyl-N-((1R,3r,5S)-8-((4-(methyl(3,3,3-trifluoropropyl)amino)piperidin-1-yl)sulfonyl)-8-azabicyclo[3.2.1]octan-3-yl)isoxazole-3-carboxamide] are 81.6 nM and 364 nM.
With `CNC(C)(C)c1ccc(S(=O)(=O)N2[C@@H]3CC[C@H]2C[C@@H](NC(=O)c2cc(C4CC4)on2)C3)cc1` [compound 962, 5-cyclopropyl-N-((1R,3r,5S)-8-((4-(2-(methylamino)propan-2-yl)phenyl)sulfonyl)-8-azabicyclo[3.2.1]octan-3-yl)isoxazole-3-carboxamide], the IC50 is 81.8 nM at SMYD3 [1] and 695 nM at SMYD3 [2].
For `CCC1CN(C)CCN1S(=O)(=O)N1[C@@H]2CC[C@H]1C[C@@H](NC(=O)c1cc(C3CC3)on1)C2` (stereo partly drawn) [compound 963, 5-cyclopropyl-N-((1R,3r,5S)-8-((2-ethyl-4-methylpiperazin-1-yl)sulfonyl)-8-azabicyclo[3.2.1]octan-3-yl)isoxazole-3-carboxamide], the half-inhibitory concentration (IC50) was found to be 82.9 nM on SMYD3 [1] and 690 nM on SMYD3 [2].
On the same counts, the results for `CN1CCCC[C@@H]1CS(=O)(=O)N1[C@@H]2CC[C@H]1C[C@@H](NC(=O)c1cc(C3CC3)on1)C2` [compound 964, 5-cyclopropyl-N-((1R,3R,5S)-8-((((R)-1-methylpiperidin-2-yl)methyl)sulfonyl)-8-azabicyclo[3.2.1]octan-3-yl)isoxazole-3-carboxamide] are 83 nM and 450 nM.
Regarding `CCCc1cc(C(=O)N[C@H]2C[C@H]3CC[C@@H](C2)N3S(=O)(=O)CC2CCN(C)CC2)no1` [compound 965, N-((1R,3r,5S)-8-(((1-methylpiperidin-4-yl)methyl)sulfonyl)-8-azabicyclo[3.2.1]octan-3-yl)-5-propylisoxazole-3-carboxamide], the IC50 at SMYD3 [1] came to 85.3 nM; at SMYD3 [2] it was 1310 nM.
Turning to `O=C(N[C@H]1CCN(S(=O)(=O)N2CCNCC2)[C@@H](Cc2ccccc2)C1)c1cc(C2CC2)on1` [compound 966, N-((2S,4S)-2-benzyl-1-(piperazin-1-ylsulfonyl)piperidin-4-yl)-5-cyclopropylisoxazole-3-carboxamide], the 50% inhibitory concentration (IC50) came out at 86.8 nM at SMYD3 [1] and 1200 nM at SMYD3 [2].
Consider `O=C(N[C@H]1C[C@H]2CC[C@@H](C1)N2S(=O)(=O)N1CC2CCC(C1)N2CCN1CCOCC1)c1cc(C2CC2)on1` [compound 967, 5-cyclopropyl-N-((1R,3r,5S)-8-((8-(2-morpholinoethyl)-3,8-diazabicyclo[3.2.1]octan-3-yl)sulfonyl)-8-azabicyclo[3.2.1]octan-3-yl)isoxazole-3-carboxamide], for which the IC50 is 87 nM at SMYD3 [1] (setting [3]) and 503 nM on SMYD3 [2] (setting [3]).
`NCc1ccc(S(=O)(=O)N2[C@@H]3CC[C@H]2C[C@@H](NC(=O)c2cc(C4CC4)on2)C3)c(Cl)c1` [compound 968, N-((1R,3r,5S)-8-((4-(aminomethyl)-2-chlorophenyl)sulfony1)-8-azabicyclo[3.2.1]octan-3-yl)-5-cyclopropylisoxazole-3-carboxamide]: the results for the IC50 on SMYD3 [1] (setting [3]) and at SMYD3 [2] (setting [3]) were 88.3 nM and not below 10000 nM, respectively.
Regarding `CN1CCC[C@@H]1CS(=O)(=O)N1[C@@H]2CC[C@H]1C[C@@H](NC(=O)c1cc(C3CC3)on1)C2` [compound 969, 5-cyclopropyl-N-((1R,3R,5S)-8-((((R)-1-methylpyrrolidin-2-yl)methyl)sulfonyl)-8-azabicyclo[3.2.1]octan-3-yl)isoxazole-3-carboxamide], the IC50 at SMYD3 [1] (setting [3]) was 88.6 nM; at SMYD3 [2] (setting [3]), 440 nM.
On the same counts, the results for `CCc1cc(C(=O)N[C@H]2C[C@H]3CC[C@@H](C2)N3S(=O)(=O)c2ccc(C(C)(C)N)cc2)no1` [compound 970, N-((1R,3r,5S)-8-((4-(2-aminopropan-2-yl)phenyl)sulfonyl)-8-azabicyclo[3.2.1]octan-3-yl)-5-ethylisoxazole-3-carboxamide] are 89.3 nM and 748 nM.
On the same counts, the results for `O=C(N[C@H]1C[C@H]2CC[C@@H](C1)N2S(=O)(=O)C[C@H]1CCCCN1)c1cc(C2CC2)on1` [compound 971, 5-cyclopropyl-N-((1R,3R,5S)-8-((((R)-piperidin-2-yl)methyl)sulfonyl)-8-azabicyclo[3.2.1]octan-3-yl)isoxazole-3-carboxamide] are 90.8 nM and 466 nM.
For the compound `C[C@H]1C[C@@H](NC(=O)c2cc(C3CC3)on2)CCN1S(=O)(=O)N1CCC(NC(C)(C)c2ccccc2)CC1` [compound 972, 5-cyclopropyl-N-((2S,4S)-2-methyl-1-((4-((2-phenylpropan-2-yl)amino)piperidin-1-yl)sulfonyl)piperidin-4-yl)isoxazole-3-carboxamide], the values for the IC50 at SMYD3 [1] (setting [3]) and at SMYD3 [2] (setting [3]) were 93.3 nM and 1270 nM, respectively.
On the same counts, the results for `CN(CCN1CCOCC1)C1CCN(S(=O)(=O)N2[C@@H]3CC[C@H]2C[C@@H](NC(=O)c2cc(C4CC4)on2)C3)CC1` [compound 973, 5-cyclopropyl-N-((1R,3r,5S)-8-((4-(methyl(2-morpholinoethyl)amino)piperidin-1-yl)sulfonyl)-8-azabicyclo[3.2.1]octan-3-yl)isoxazole-3-carboxamide] are 95.3 nM and 1020 nM.
As for `CC[C@@H]1CN(S(=O)(=O)N2CC[C@H](NC(=O)c3cc(C4CC4)on3)C[C@@H]2C)CCN1` [compound 974, 5-cyclopropyl-N-((2S,4S)-1-(((R)-3-ethylpiperazin-1-yl)sulfonyl)-2-methylpiperidin-4-yl)isoxazole-3-carboxamide], the IC50 at SMYD3 [1] (setting [3]) came out at 99 nM; on SMYD3 [2] (setting [3]) it was 807 nM.
Take `CC(C)C1CNCCN1S(=O)(=O)N1CC[C@H](NC(=O)c2cc(C3CC3)on2)C[C@@H]1C` (stereo partly drawn) [compound 975, 5-cyclopropyl-N-((2S,4S)-1-((2-isopropylpiperazin-1-yl)sulfonyl)-2-methylpiperidin-4-yl)isoxazole-3-carboxamide]: the IC50 on SMYD3 [1] (setting [3]) stood at 101 nM; on SMYD3 [2] (setting [3]), 914 nM.
On the same counts, the results for `CN1CCCC[C@H]1CS(=O)(=O)N1[C@@H]2CC[C@H]1C[C@@H](NC(=O)c1cc(C3CC3)on1)C2` [compound 976, 5-cyclopropyl-N-((1R,3S,5S)-8-((((S)-1-methylpiperidin-2-yl)methyl)sulfonyl)-8-azabicyclo[3.2.1]octan-3-yl)isoxazole-3-carboxamide] are 105 nM and 555 nM.
On the same counts, the results for `CN1CC2CCC(C1)N2S(=O)(=O)N1[C@@H]2CC[C@H]1C[C@@H](NC(=O)c1cc(C3CC3)on1)C2` [compound 977, 5-cyclopropyl-N-((1R,3r,5S)-8-((3-methyl-3,8-diazabicyclo[3.2.1]octan-8-yl)sulfonyl)-8-azabicyclo[3.2.1]octan-3-yl)isoxazole-3-carboxamide] are 107 nM and 742 nM.
On the same counts, the results for `CC(C)(NC1CCN(S(=O)(=O)N2[C@@H]3CC[C@H]2C[C@@H](NC(=O)c2cc(C4CC4)on2)C3)CC1)c1ccccc1` [compound 978, 5-cyclopropyl-N-((1R,3r,5S)-8-((4-((2-phenylpropan-2-yl)amino)piperidin-1-yl)sulfonyl)-8-azabicyclo[3.2.1]octan-3-yl)isoxazole-3-carboxamide] are 117 nM and 1330 nM.
Take `CN1CCC[C@H]1CS(=O)(=O)N1[C@@H]2CC[C@H]1C[C@@H](NC(=O)c1cc(C3CC3)on1)C2` [compound 979, 5-cyclopropyl-N-((1R,3S,5S)-8-((((S)-1-methylpyrrolidin-2-yl)methyl)sulfonyl)-8-azabicyclo[3.2.1]octan-3-yl)isoxazole-3-carboxamide]: the IC50 on SMYD3 [1] (setting [3]) is 119 nM; on SMYD3 [2] (setting [3]), 436 nM.
`C[C@H]1C[C@@H](NC(=O)c2cc(C3CC3)on2)CCN1S(=O)(=O)N1CCN(C)C[C@@H]1C` [compound 980, 5-cyclopropyl-N-((2S,4S)-1-(((S)-2,4-dimethylpiperazin-1-yl)sulfonyl)-2-methylpiperidin-4-yl)isoxazole-3-carboxamide]: the IC50 on SMYD3 [1] (setting [3]) was found to be 120 nM; on SMYD3 [2] (setting [3]), 697 nM.
